ChEMBL document CHEMBL1130717, “Tricyclic ureas: a new class of HIV-1 protease inhibitors” (Bioorg Med Chem Lett, 1998)

Molecular target: Human immunodeficiency virus type 1 protease (Human immunodeficiency virus 1, UniProt Q72874)
Test: Compound was tested for the inhibition of HIV-1 protease by assaying the cleavage of a fluorescent peptide using HPLC

SMILES | Ki [µM]
O=C1N(Cc2ccccc2)[C@H](Cc2ccccc2)[C@@H](O)[C@H](O)[C@]23CC[C@H](CC2)N13 | 6.3
O=C1N(Cc2ccc3[nH]ncc3c2)[C@H](Cc2ccccc2)[C@H](O)[C@H](O)[C@]23CC[C@H]([C@H](OCc4ccccc4)C2)N13 | 0.009
O=C1N[C@H](Cc2ccccc2)[C@@H](O)[C@H](O)[C@]23CC[C@H](CC2)N13 | 21
O=C1N(Cc2ccccc2)[C@H](Cc2ccccc2)[C@H](O)[C@H](O)[C@]23CC[C@H]([C@H](OCc4ccccc4)C2)N13 | 0.75
O=C1N(Cc2ccccc2)[C@H](Cc2ccccc2)[C@H](O)[C@H](O)[C@]23CC[C@H](CC2)N13 | 2.4
O=C1N(Cc2ccc3[nH]ncc3c2)[C@H](Cc2ccccc2)[C@H](O)[C@H](O)[C@]23CC[C@H](CC2)N13 | 2.3
